Experimental data taken from patent US20040186022A1, “Enhanced herbicides” (priority 1999, published 2004).

Columns and labels:
plants [1] = assay: Synergistic relationship between succinic acid and caprylic/capric acids C/C, herbicidal activity; assay type: in vivo; details: for Injury ratings, Total: 40 G/a + 60 G/a; for Injury ratings based on 2 independent evaluations, 40 G/a: 40 G/acre: Canadian thistle, velvet leaf; for Injury ratings based on 2 independent evaluations, 40 G/a / Injury ratings based on 2 independent evaluations, 60 G/a: Johnson grass and giant foxtail, each pot rated 1 to 5; for Injury ratings based on 2 independent evaluations, 60 G/a: 60 G/acre: velvetleaf; for Average rating per pot: rating 1 to 5, 5 = complete desiccation of all plants
Text: (§1) The herbicides were applied in the “spray to drip” amount or at a calibrated 20-60 gallons/acre. “Spray to drip” is an uncalibrated application of fluid to foliage, where sufficient spray volume is used to sufficiently saturate the foliage surface until excess fluid begins to drip from the foliage.

[2] = system: navy dry beans (navy Vista); assay: Synergistic interactions of succinic acid and di-ammonium succinate with herbicidal compounds, navy dry beans; assay type: in vivo, dry bean (navy); details: for Injury rating, average per plot: scale 1-5
Text: as §1

[3] = system: black beans (dry bean variety T39); assay: Synergistic interactions of succinic acid and di-ammonium succinate with other herbicidal compounds, dry beans (black); assay type: in vivo; details: for Injury rating, average per plot: scale 1-5
Text: as §1

[4] = system: 40 G/a: crab grass, pigweed, chick weed and foxtail; 60 G/a: pigweed, Kentucky bluegrass, foxtail, crab grass and barnyard grass; spray to drip: Kentucky …; assay: Herbicidal activities: synergy between succinic acid and pelargonic acid; assay type: in vivo; parameters: Total injury ratings, 60 G/a / Total injury ratings, Spray to drip / Total injury ratings, Total: scale not given here; details: for Total injury ratings, Total / Total injury ratings, 40 G/a: 40 G/a; for Total injury ratings, Total: 60 G/a and spray to drip; for Total injury ratings, 40 G/a: 9 pots/treatment, rating 1-5 per pot, 1.125% Emsorb 6900; for Total injury ratings, 60 G/a: 10 pots/treatment; for Total injury ratings, Spray to drip: 7 pots/treatment
Text: as §1

[5] = system: 60 G/a: lambsquarter, pigweed and velvetleaf; spray to drip: lambsquarter and foxtail; assay: Herbicidal activity of caproic acid with succinic acid and sodium salicylate; assay type: in vivo; details: for Total Injury ratings, Total score: 60 G/a plus spray to drip; for Total injury ratings, 60 G/a: 4 pots/treatment, lambsquarter, pigweed and velvetleaf, rating 1-5 per pot; for Total injury ratings, Spray to drip: 2 pots/treatment, lambsquarter and foxtail
Text: as §1

plants [6] = assay: Herbicidal enhancement of pelargonic by succinic acid and diammonium succinate; assay type: in vivo
Text: as §1

[7] = system: 60 G/a: black nightshade, redroot pigweed, foxtail, lambsquarter and snapbeans; spray to drip: redroot pigweed, velvetleaf, nutsedge and foxtail; assay: Efficacy of 3% caprylic with succinic or ammonium succinate in an emulsification system (Emsorb 6900); assay type: in vivo
Text: as §1

[8] = system: 60 G/a: velvetleaf, black nightshade, redroot pigweed, foxtail and snapbeans; spray to drip: black nightshade, velvetleaf, foxtail and snapbeans; assay: Efficacy of 1.5% succinic acid with oleic, caprylic or pelargonic acid in an emulsification system (Emsorb 6900); assay type: in vivo; parameters: Injury rating, total score for 2 evaluation, Spray to drip / Injury rating, total score for 2 evaluation, Total Rating: scale not given here
Text: as §1

plants [9] = assay: Herbicidal activity: comparison of caprylic, pelargonic and an equimolar mixture of caprylic and pelargonic acids; assay type: in vivo
Text: The herbicides were applied in the “spray to drip” amount or at a calibrated 20-60 gallons/acre. “Spray to drip” is an uncalibrated application of fluid to foliage, where sufficient spray volume is used to sufficiently saturate the foliage surface until excess fluid begins to drip from the foliage. In general, about 5 to 200 gallons/acre, preferably 20-100 gallons/acre can be effective.

[10] = system: 40 G/a: crab grass, chickweed and common lambsquarter; 60 G/a: redtop, pigweed, foxtail; spray to drip: barnyard grass, foxtail, sudan grass and nutsedge; assay: Herbicidal combinations of caprylic/capric (c/c) or pelargonic acid with equimolar succinic acid and ammonium succinate, on weed varieties; assay type: in vivo
[11] = system: 60 G/a: redroot pigweed, foxtail and velvetleaf; spray to drip: foxtail, dry beans and pigweed; assay: Herbicidal activity: caprylic acid and succinic acid +/- ammonium sulfate; assay type: in vivo
Text: as §1

Potato, variety Katahdin = assay: Potato field trial: 2 applications of selected herbicides, including Desiccate II; assay type: in vivo; details: scale 1-5
Text: as §1

[12] = Measurement of pH values for test desiccants (Example 56); assay type: physicochemical
soybeans [13] = assay: Synergistic relationships: succinic acid + caprylic acid, succinic acid + sodium salicylate, testing soybeans; assay type: in vivo; details: 3 days after a single foliar application, soybean Stine 2250; for Overall Effect: 5 equals profound desiccation
Text: as §1

soybeans [14] = assay: Synergy comparisons of various organic acids with caprylic acid, testing soybeans; assay type: in vivo; details: 3 days after a single foliar application, average of 2 sites, soybean Stine 2250
Text: as §1

[15] = Measurement of pH values for test desiccants (Example 55); assay type: physicochemical
[16] = system: chickweed, redtop, velvetleaf, crabgrass and green foxtail; assay: Enhancement of herbicidal activity of caprylic/capric acids (c/c) using selected compounds at equimolar amounts; assay type: in vivo
Text: as §1

[17] = Day 1, one application at 40 G/acre, treatments 1-4, 9-11 in Emsorb 6900/mineral oil/Hasten, 5-8, 12-14 in 0.3% Sylgard 309
[18] = Day 2, one application at 40 G/acre, treatments 1-4, 9-11 in Emsorb 6900/mineral oil/Hasten, 5-8, 12-14 in 0.3% Sylgard 309
[19] = rating 1 to 5, 5 = complete desiccation of all plants
[20] = 60 G/a, rating 1-5 per pot, 1% Emsorb, 0.3% Hasten

SMILES: O=C([O-])c1ccccc1O.[Na+] [0.5% sodium salicylate]
- Injury ratings, Total (plants [1]): 1.5
- Injury ratings based on 2 independent evaluations, 40 G/a (plants [1]): 1
- Injury ratings based on 2 independent evaluations, 60 G/a (plants [1]): 0.5
- Average rating per pot (plants [1]): 0.04

SMILES: O=C(O)CCC(=O)O [0.5% succinic acid, succinic acid]
- Injury rating, average per plot [2, 17]: 0
- Injury rating, average per plot ([2]; Day 2): 0
- Injury rating, average per plot ([2]; Day 3): 0
- Injury rating, average per plot ([2]; Day 4): 0
- % desiccation (Day 12), foliage [2]: 0%
- % desiccation (Day 12), pods [2]: 0%
- % desiccation (Day 12), vines [2]: 0%
- Injury rating, average per plot ([2]; Day 12): 0
- Injury rating, average per plot [3, 18]: 0
- % desiccation (Day 12), foliage [3]: 0%
- % desiccation (Day 12), pods [3]: 0%
- % desiccation (Day 12), vines [3]: 0%
- Injury rating, average per plot ([3]; Day 12): 0
- Total injury ratings, Total [4]: 0
- Total injury ratings, 40 G/a [4]: 0
- Total injury ratings, 60 G/a [4]: 0
- Total injury ratings, Spray to drip [4]: 0
- Injury ratings, Total (plants [1]): 0
- Injury ratings based on 2 independent evaluations, 40 G/a (plants [1]): 0
- Injury ratings based on 2 independent evaluations, 60 G/a (plants [1]): 0
- Average rating per pot (plants [1]): 0

SMILES: CCCCCC(=O)O [2% caproic, caproic acid]
- Total Injury ratings, Total score [5]: 18.5
- Total injury ratings, 60 G/a [5]: 11.2
- Total injury ratings, Spray to drip [5]: 7.3

SMILES: CCCCCCCCC(=O)O [2.5% pelargonic]
- Injury ratings based on 2 independent evaluations, 40 G/a (plants [6]; 40 G/a: lambsquarter, velvetleaf and green foxtail, each pot rated 1 to 5): 79.2
- Injury ratings based on 2 independent evaluations, 60 G/a (plants [6]; 60 G/a: pigweed, chickweed, crabgrass, green foxtail, velvetleaf, lambsquarter and wheat, each pot rated 1 to 5): 102.2
- Injury ratings based on 2 independent evaluations, Spray to drip (plants [6]; Spray to drip: nutsedge, velvetleaf, green foxtail, giant foxtail and barnyard grass, each pot rated 1 to 5): 53.8
- Average rating per pot (plants [6]; [19]): 4.36

SMILES: CCCCCC(=O)O [3% caproic, caproic acid]
- Total Injury ratings, Total score [5]: 20.9
- Total injury ratings, 60 G/a [5]: 13.9
- Total injury ratings, Spray to drip [5]: 7

SMILES: CCCCCCCC(=O)O [3% caprylic, caprylic acid]
- Injury rating, average per plot [2, 17]: 3.5
- Injury rating, average per plot ([2]; Day 2): 3.93
- Injury rating, average per plot ([2]; Day 3): 3.93
- Injury rating, average per plot ([2]; Day 4): 4
- % desiccation (Day 12), foliage [2]: 50%
- % desiccation (Day 12), pods [2]: 80%
- % desiccation (Day 12), vines [2]: 10%
- Injury rating, average per plot ([2]; Day 12): 4.2
- Injury rating, average per plot [3, 18]: 4
- % desiccation (Day 12), foliage [3]: 80%
- % desiccation (Day 12), pods [3]: 95%
- % desiccation (Day 12), vines [3]: 92%
- Injury rating, average per plot ([3]; Day 12): 4.73
- Injury rating, total score for 2 evaluations, Total Rating ([7]; 60 G/a plus spray to drip): 178.4
- Injury rating, total score for 2 evaluations, 60 G/a [7, 20]: 142
- Average rating per pot ([7]; scale 1-5): 4.05
- Injury rating, total score for 2 evaluations, Spray to drip ([7]; spray to drip): 36.6
- Injury rating, total score for 2 evaluation, Total Rating ([8]; 60 G/a plus spray to drip): 123.5
- Injury rating, total score for 2 evaluation, 60 G/a [8, 20]: 88.1
- Average rating per pot ([8]; scale 1-5): 4.41
- Injury rating, total score for 2 evaluation, Spray to drip ([8]; spray to drip): 35.4
- Injury ratings based on 2 independent evaluations, 40 G/acre (plants [9]; 40 G/acre: chickweed, redroot pigweed, lambsquarter and green foxtail, each pot rated 1 to 5): 40.8
- Injury ratings based on 2 independent evaluations, 60 G/acre (plants [9]; 60 G/acre: chickweed, redroot pigweed, lambsquarter, green foxtail, crabgrass and wheat, each pot rated 1 to 5): 51.6
- Average rating per pot (plants [9]; [19]): 4.16

SMILES: CCCCCCCCC(=O)O [3% pelargonic acid, pelargonic acid]
- Total injury ratings, Total ([10]; 40 G/a, 60 G/a and spray to drip): 185.8
- Total injury ratings, 40 G/a ([10]; 40 G/a, 10 pots/treatment, two evaluations, rating 1-5 per pot, 1% Emsorb 6900): 87.7
- Total injury ratings, 60 G/a ([10]; 60 G/a, 7 pots/treatment, two evaluations): 60.8
- Average rating/pot ([10]; scale 1-5): 4.42
- Total injury ratings, Spray to drip ([10]; spray to drip, 8 pots/treatment, one evaluation): 37.3

SMILES: CCCCCCCC(=O)O [4% caprylic acid, caprylic acid]
- Total Injury ratings, combined, for two separate evaluations, Total Rating ([11]; 60 G/a plus spray to drip): 116.8
- Total Injury ratings, combined, for two separate evaluations, 60 G/a ([11]; 60 G/a, 7 pots/treatment, rating 1-5 per pot, 1% Emsorb 6900): 60.7
- Average rating/pot ([11]; scale 1-5): 4.49
- Total Injury ratings, combined, for two separate evaluations, Spray to drip ([11]; spray to drip, 6 pots/treatment): 56.1

SMILES: CCCCCCCCC(=O)O [4% pelargonic acid, pelargonic acid]
- Total injury ratings, Total [4]: 153.4
- Total injury ratings, 40 G/a [4]: 41.6
- Total injury ratings, 60 G/a [4]: 45.6
- Total injury ratings, Spray to drip [4]: 66.2

SMILES: CCCCCCCCC(=O)O [5% pelargonic, pelargonic acid]
- Injury rating, average per plot (Potato, variety Katahdin; Day 1, 40-42 G/acre, 2nd treatment 2 days after 1st): 4.07
- Injury rating, average per plot (Potato, variety Katahdin; Day 2): 4
- Injury rating, average per plot (Potato, variety Katahdin; Day 3): 4.13
- Injury rating, average per plot (Potato, variety Katahdin; Day 5): 4.43

SMILES: NCCC(=O)O [Beta-Alanine (0.5%)]
- pH Value [12]: 6.65

SMILES: CCCCCCCC(=O)O [Caprylic Acid (1%)]
- Foliage Affected (%) (soybeans [13]): 25-30%
- Overall Effect (soybeans [13]): 2.5

SMILES: O=C(O)C(O)C(O)C(=O)O [L-Tartaric Acid (0.5%)]
- Foliage Affected (%) (soybeans [14]): 0%
- Overall Effect (soybeans [14]; 5 equals profound desiccation): 0
- pH Value [15]: 1.52
- pH Value [12]: 1.72

SMILES: O=C([O-])c1ccccc1O.[Na+] [Sodium Salicylate (0.5%)]
- pH Value [12]: 4.48

SMILES: N.N.O=C(O)CCC(=O)O [ammonium succinate]
- Rating of additive tested alone ([10]; footnote): Since succinic acid (or ammonium succinate) tested alone had a rating of zero, pelargonic acid (or c/c) + succinic acid (or ammonium succinate) were synergistic. The exception was: 3% pelargonic acid + 1.26% ammonium succinate

SMILES: O=C(O)CCC(=O)O [succinic acid (1%), succinic acid]
- Relative injury ratings, Day #2 ([16]; Day 2 after treatment, 40 G/acre, 8 pots, rating 1-5 per pot, […] Emsorb 6900, […] mineral oil): 0
- Relative injury ratings, Day #4 ([16]; Day 4 after treatment): 0
- Relative injury ratings, Day #5 ([16]; Day 5 after treatment): 0
- Average rating per pot ([16]; scale 1-5): 0
- Foliage Affected (%) (soybeans [13]): 0%
- Overall Effect (soybeans [13]): 0
